Biological target: T1, Rar1 (Arabidopsis thaliana, UniProt Q9SE33)
T1 sequence (Q9SE33 1-226): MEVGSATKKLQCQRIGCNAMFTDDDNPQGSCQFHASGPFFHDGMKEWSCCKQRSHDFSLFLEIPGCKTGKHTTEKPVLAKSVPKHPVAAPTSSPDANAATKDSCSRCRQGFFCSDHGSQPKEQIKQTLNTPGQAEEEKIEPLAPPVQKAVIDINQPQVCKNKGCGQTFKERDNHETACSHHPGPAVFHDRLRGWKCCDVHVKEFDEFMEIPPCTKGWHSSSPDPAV
Assay: near-UV CD titration, non-linear fit at […] nm
Conditions: 4 °C; 1:1 site; authors call it weak non-specific binding; apparent Kd

Question: How did the Kd turn out when `Nc1ncnc2c1ncn2[C@@H]1O[C@H](COP(=O)(O)OP(=O)(O)O)[C@@H](O)[C@H]1O` [ADP] was run?
Answer: 2000 µM

Source: article PMC5776081, “The Stoichiometric Interaction of the Hsp90-Sgt1-Rar1 Complex by CD and SRCD Spectroscopy” (Frontiers in Molecular Biosciences, 2018)
